Measured values reported in patent publication US20120108464A1, “TEST SYSTEMS, METHODS AND USES INVOLVING AS160 PROTEIN” (SANOFI-AVENTIS, priority 2009, published 2012).

Assays:
[1] = system: L6-GLUT4myc cells transiently transfected with pCDNA5/TO/GFP; test: Functionality of the T-REx system: tetracycline-inducible GFP expression plasmid; format: cell-based, rat; conditions: doxycycline 1 μg/ml versus absence of doxycycline
Procedure: FIG. 4: Functionality of the T-Rex system. […]T4myc cells were transiently transfected with […] pCDNA5/TO/GFP. In the absence of doxycycline only a minor number of cells express GFP (A). Addition of doxycycline (1μg/ml) increases the number of GFP positive cells up to about 10 fold (B). L6 cells stably expressing GLUT4myc ([…]T4myc, described in Wang et al. 1998) were subsequently used for the tet-inducible expression of AS160 protein. For this purpose the T-REx system from Invitrogen was used. The regulatory plasmid in this system controls the constitutive expression of the tet-repressor (tet-R) under the control of a CMV (cytomegalovirus) promoter. In the absence of tetracyline (or doxycycline) the repressor binds to specific tetracycline-operator sequences (TetO2) and thereby represses expression. Addition of tetracycline (or doxycycline) induces expression of the protein of interest. To allow a stable integration of the tet-system in […]T4myc cells the tet-repressor was islolated from pCDNA3.1 (+)/TR (Invitrogen) and cloned into the Nhel and Notl sites of pIRESpuro2 (FIG. 3). Subsequently pIRESpuro2/TR was transfected into […]T4myc cells. Clones stably expressing the regulatory plasmid were selected with 0.5 μg/ml puromycin (InvivoGen). Functionality of the tet-repressor was controlled with a tetracycline-inducible GFP expression plasmid (pCDNA5/TO-GFP). […]

[2] = system: L6-GLUT4myc cells containing AS160; test: Uptake of 2-deoxyglucose in response to insulin (Cytostar-T scintillating microplates); format: cell-based, rat; conditions: FIG. 6
Procedure: For all examples the L6-GLUT4myc cells containing AS160 were grown in MEMα (PAN) supplemented with 10% fetal calf serum (FCS) (PAA, tet-free), 2 μg/ml blasticidin (Calbiochem), 0.5 μg/ml puromycin (InvivoGen), 200 μg/ml hygromycin (Invitrogen). Expression of AS160 was induced with 1 μg/ml doxycyclin (Sigma). L6-wildtype (wt) (ATCC: CRL-1458) cells were grown in MEMα+GlutaMax (Gibco) supplemented with 10% FCS (PAA, tet-free) and 1% penicillin/streptomycin (PAA). L6-GLUT4myc cells were grown in MEMα+GlutaMax (Gibco) supplemented with 10% FCS (PAA, tet-free), 1% penicillin/streptomycin (PAA) and 2 μg/ml blasticidin (Calbiochem). Expression of AS160 was induced by inbubation of the cells for 48 hours with 1 μg/ml doxycycline (Sigma). All cells were grown at 37° C. and 5% CO2 L6-GLUT4myc cells containing AS160 were incubated in starve medium (MEMα) 3-4 hours prior to each experiment.
To examine glucose uptake of the cells, the respective cells were plated in 96 well Cytostar-T scintillating microplates (Amersham/GE). After 48 hours cells were serum-starved (3-4 hours) and treated with the indicated Insuman (human insulin) concentartions a for 20 minutes. […] Nonspecific uptake was determined in the presence of 40 μM cytochalasin B (Calbiochem). […] Uptake of 2-deoxyglucose is measured as counts per […] and presented as fold over basal. […]

Row | Molecule | Increase of the number of GFP positive cells [1] | Uptake of 2-deoxyglucose, fold over basal ([2]; with expression of AS160 (isoform 1, doxycycline-induced), 100 nM insulin, 20 minutes) | Uptake of 2-deoxyglucose, fold over basal (maximum) ([2]; without expression of AS160 (isoform 1), insulin 20 minutes)
1 | C[C@H]1c2cccc(O)c2C(=O)C2=C(O)[C@]3(O)C(=O)C(C(N)=O)=C(O)[C@@H](N(C)C)[C@@H]3[C@@H](O)[C@@H]21 [doxycycline] | about 10 fold | – | –
2 | insulin: Insuman (human insulin) | – | about 6 fold | about 4 fold
